Experimental data taken from US20120225417A1, “Methods, Compositions and Kits for the Evaluation and Preservation of Sperm” (I'Alliance Boviteq Inc., priority 2011, published 2012).

Assays:
Format in all cases: biochemical
[1] = test system: 3′-5′ cAMP-PDE activity in bovine seminal plasma; test: 3′-5′ cAMP-PDE assay with family-specific PDE inhibitors in bovine seminal plasma; settings: thawed bovine seminal plasma, papaverine 400 nM (FIG. 8)
Protocol: Fresh ejaculated bovine sperm, at known concentrations, was transported for three hours at 18° C. Upon arrival specimens were centrifuged at 400×g during 10 minutes at room temperature to gently pull down spermatozoa. Supernatant was transferred and centrifuged again at 6 000×g at 4° C. during 20 minutes to pull down any remaining spermatozoa. Supernatant was then transferred and centrifuged at 6 000×g at 4° C. during 20 minutes to remove any remaining debris. Seminal plasma (SP) samples were kept on ice until used for PDE assay and stored at −80° C. for further characterization.
The cAMP enzymatic assay (PDE assay) was conducted as previously described (Sasseville, M. et al., (2006). BMC developmental biology 6, 47). Samples were directly subjected to PDE assay. 3′-5′ cAMP-PDE activity was assessed at 34° C. in 200 μL final volume using 1 μM cAMP as substrate (Thompson, W. J. et al., (1979). Adv Cyclic Nucleotide Res 10, 69-92) with minor modifications. […] Knowing the exact concentrations of spermatozoa in each SP sample, total 3′-5′ cAMP-PDE activity was reported as the quantity of cAMP (fMol) hydrolysed per minute per the number of spermatozoa (fMol/min/10^6 spz). […] To determine which PDE family contributes to total 3′-5′ cAMP-PDE activity, the activity measured in the presence of the respective inhibitors was subtracted from the total. […]

[2] = test system: 3′-5′ cAMP-PDE activity in human spermatozoa; test: 3′-5′ cAMP-PDE assay with family-specific PDE inhibitors in human spermatozoa; settings: 95% fractionation method, papaverine 400 nM (FIG. 18)
Protocol: Ejaculates were obtained by masturbation from healthy donors after a minimum of 2 days of sexual abstinence. After ejaculation, semen was kept at room temperature to allow liquefaction. To prepare human ejaculate, three different fractionation methods were used: “G2 method”, “40-80% fractionation” or “95% fractionation”.
For “G2 method”, according to the ejaculate volume, approximately 1 ml of semen was added to 5 ml of isotonic solution: HEPES-buffered saline (HBS: 25 mM Hepes, 130 mM NaCl, 4 mM KCl, 0.5 mM MgCl2, 14 mM fructose, pH 7.6) in a 15 mL falcon tube to wash the spermatozoa from the seminal plasma. […] Then, the samples were vortex-agitated for 30 sec and kept on the ice until ready to run the assay. The concentration of sperm cells was measured according to hemacytometer method. […]
The cAMP enzymatic assay (PDE assay) was conducted as previously described (Sasseville, M. et al., (2006). BMC developmental biology 6, 47). […] 3′-5′ cAMP-PDE activity was assessed at 34° C. in 200 μL final volume using 1 μM cAMP as substrate (Thompson, W. J. et al., (1979). Adv Cyclic Nucleotide Res 10, 69-92) with minor modifications. […] Knowing the exact concentrations of spermatozoa in each SP sample, total 3′-5′ cAMP-PDE activity was reported as the quantity of cAMP (fMol) hydrolysed per minute per the number of spermatozoa (fMol/min/10^6 spz). […]

[3] = test system: 3′-5′ cAMP-PDE activity in human seminal plasma; test: 3′-5′ cAMP-PDE assay with family-specific PDE inhibitors in human seminal plasma; settings: fresh human seminal plasma; Rolipram 10 μM, Papaverine 400 nM (FIG. 19)
Protocol: A certain amount of complete ejaculate was kept to isolate spermatozoa from seminal plasma. This portion was centrifuged at 400×g during 10 minutes at room temperature to gently pull down spermatozoa. Supernatant was transferred and centrifuged again at 6 000×g at 4° C. during 20 minutes to pull down any remaining spermatozoa. Supernatant was then transferred and centrifuged at 6 000×g at 4° C. during 20 minutes to remove any remaining debris. SP samples were kept on ice until used for PDE assay and stored at -80° C. for further characterization. The cAMP enzymatic assay (PDE assay) was conducted as previously described ([…]. et al., (2006). BMC developmental biology 6, 47). […] J. et al., (1979). Adv Cyclic Nucleotide Res 10, 69-92) with minor modifications. […] Measurements were also performed in the presence of PDE inhibitors: […] Cilostamide and Rolipram were purchased from Biomol. […] Each PDE assay was performed in triplicate for each experiment and each experiment was repeated at least three times. As described ([…]. et al., (2009). […] IBMX-sensitive PDE5 and PDE6 and IBMX-insensitive PDE9 activities are absent from these groups because cGMP is the specific substrate and then are not detected in the cAMP-PDE assay. […] J Dairy Sci 92, 3757-3765; […]., et al. (2007). Endocrinology 148, 1858-1867; Siuciak, J. A. et al., (2006). Neuropharmacology 51, 386-396).

**Q.** For COc1ccc(Cc2nccc3cc(OC)c(OC)cc23)cc1OC [Papaverine], which “Share of PDE activity in bovine seminal plasma that is papaverine-sensitive” value [1] is on record?
**A.** more than 50%

**Q.** What about the “Share of cAMP-PDE activity that is papaverine-sensitive” value [2] of the same compound?
**A.** more than 50%

**Q.** And the “Inhibitor-sensitive PDE activity in human seminal plasma (in words)” value [3]?
**A.** low percentage
